Experimental data published in ChEMBL document CHEMBL1145603, “Evaluation of antiangiogenic activity of azumamides by the in vitro vascular organization model using mouse induced pluripotent stem (iPS) cells” (Bioorg Med Chem Lett, 2008).

How the values were obtained:
[1] = molecular target: T1, Protein deacetylase HDAC6 (Homo sapiens, UniProt Q9UBN7); experiment: Inhibition of human HDAC6 expressed in 293T cells; type: cell-based
T1 sequence (Q9UBN7 whole entry): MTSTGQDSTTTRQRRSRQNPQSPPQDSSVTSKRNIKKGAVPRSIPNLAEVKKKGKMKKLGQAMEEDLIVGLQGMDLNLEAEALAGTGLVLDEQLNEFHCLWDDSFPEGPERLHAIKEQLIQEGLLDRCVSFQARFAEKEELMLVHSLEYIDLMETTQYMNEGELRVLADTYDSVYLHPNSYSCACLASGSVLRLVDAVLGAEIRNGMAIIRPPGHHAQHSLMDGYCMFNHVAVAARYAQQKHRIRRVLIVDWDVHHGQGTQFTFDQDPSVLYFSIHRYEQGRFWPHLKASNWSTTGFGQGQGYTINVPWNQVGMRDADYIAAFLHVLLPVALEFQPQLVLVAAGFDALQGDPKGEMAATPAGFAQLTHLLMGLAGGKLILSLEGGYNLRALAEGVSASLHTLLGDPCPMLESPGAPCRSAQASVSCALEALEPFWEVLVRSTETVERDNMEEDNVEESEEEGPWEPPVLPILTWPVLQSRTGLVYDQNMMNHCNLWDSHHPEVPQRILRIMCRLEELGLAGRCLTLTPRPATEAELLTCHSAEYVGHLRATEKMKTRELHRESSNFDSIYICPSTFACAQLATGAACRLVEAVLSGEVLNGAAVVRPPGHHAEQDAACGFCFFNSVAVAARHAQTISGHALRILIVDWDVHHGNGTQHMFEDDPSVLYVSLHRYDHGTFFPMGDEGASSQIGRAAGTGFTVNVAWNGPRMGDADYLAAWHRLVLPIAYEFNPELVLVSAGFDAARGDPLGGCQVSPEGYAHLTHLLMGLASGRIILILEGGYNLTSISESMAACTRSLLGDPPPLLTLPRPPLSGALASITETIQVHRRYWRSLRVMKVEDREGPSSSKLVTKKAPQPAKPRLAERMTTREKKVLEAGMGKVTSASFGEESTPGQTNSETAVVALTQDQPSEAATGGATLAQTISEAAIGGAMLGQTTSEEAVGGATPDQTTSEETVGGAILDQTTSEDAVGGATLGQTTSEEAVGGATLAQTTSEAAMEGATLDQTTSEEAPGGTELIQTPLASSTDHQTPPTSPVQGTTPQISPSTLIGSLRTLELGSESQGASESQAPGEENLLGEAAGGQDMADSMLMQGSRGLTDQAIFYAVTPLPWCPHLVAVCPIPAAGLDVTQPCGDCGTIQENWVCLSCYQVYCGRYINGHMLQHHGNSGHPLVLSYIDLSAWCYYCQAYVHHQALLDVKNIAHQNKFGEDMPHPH

Histone deacetylase 1 = Histone deacetylase 1 (Homo sapiens, UniProt Q13547); experiment: Inhibition of human HDAC1 expressed in 293T cells; type: cell-based
HeLa = experiment: Induction of p21 expression in human HeLa cells after 24 hrs; type: functional
Histone deacetylase 4 = Histone deacetylase 4 (Homo sapiens, UniProt P56524); experiment: Inhibition of human HDAC4 expressed in 293T cells; type: cell-based
Mus musculus = species: Mus musculus; experiment: Antiangiogenic activity in mouse induced pluripotent stem cells; type: functional

Histone deacetylase 4, sequence (P56524 whole entry): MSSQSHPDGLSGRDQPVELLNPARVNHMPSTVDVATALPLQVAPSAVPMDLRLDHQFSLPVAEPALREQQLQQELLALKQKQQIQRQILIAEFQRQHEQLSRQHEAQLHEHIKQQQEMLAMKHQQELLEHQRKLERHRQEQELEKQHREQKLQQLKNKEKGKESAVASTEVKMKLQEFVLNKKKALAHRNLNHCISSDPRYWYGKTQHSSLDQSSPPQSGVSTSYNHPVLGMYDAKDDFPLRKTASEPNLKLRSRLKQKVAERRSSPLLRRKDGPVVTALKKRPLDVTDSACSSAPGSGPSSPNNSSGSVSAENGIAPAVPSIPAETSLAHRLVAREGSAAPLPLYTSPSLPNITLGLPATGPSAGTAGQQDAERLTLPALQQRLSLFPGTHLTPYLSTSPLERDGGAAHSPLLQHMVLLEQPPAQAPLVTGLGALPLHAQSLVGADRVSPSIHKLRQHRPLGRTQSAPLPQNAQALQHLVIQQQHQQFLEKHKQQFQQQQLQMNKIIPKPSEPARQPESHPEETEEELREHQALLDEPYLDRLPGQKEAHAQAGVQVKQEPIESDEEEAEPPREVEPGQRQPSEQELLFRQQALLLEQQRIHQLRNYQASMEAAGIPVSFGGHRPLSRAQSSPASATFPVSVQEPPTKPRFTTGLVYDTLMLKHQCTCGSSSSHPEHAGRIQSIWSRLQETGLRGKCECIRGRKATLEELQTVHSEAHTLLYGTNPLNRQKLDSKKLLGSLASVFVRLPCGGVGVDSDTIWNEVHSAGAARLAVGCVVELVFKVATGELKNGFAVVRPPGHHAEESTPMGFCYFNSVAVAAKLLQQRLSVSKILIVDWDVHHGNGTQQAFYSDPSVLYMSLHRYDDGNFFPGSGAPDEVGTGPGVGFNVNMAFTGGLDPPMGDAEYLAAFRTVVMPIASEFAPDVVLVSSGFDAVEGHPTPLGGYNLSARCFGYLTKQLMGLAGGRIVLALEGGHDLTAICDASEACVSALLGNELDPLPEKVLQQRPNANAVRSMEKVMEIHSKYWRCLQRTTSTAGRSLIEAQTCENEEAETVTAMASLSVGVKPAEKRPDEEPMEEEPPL
Histone deacetylase 1, sequence (Q13547 whole entry): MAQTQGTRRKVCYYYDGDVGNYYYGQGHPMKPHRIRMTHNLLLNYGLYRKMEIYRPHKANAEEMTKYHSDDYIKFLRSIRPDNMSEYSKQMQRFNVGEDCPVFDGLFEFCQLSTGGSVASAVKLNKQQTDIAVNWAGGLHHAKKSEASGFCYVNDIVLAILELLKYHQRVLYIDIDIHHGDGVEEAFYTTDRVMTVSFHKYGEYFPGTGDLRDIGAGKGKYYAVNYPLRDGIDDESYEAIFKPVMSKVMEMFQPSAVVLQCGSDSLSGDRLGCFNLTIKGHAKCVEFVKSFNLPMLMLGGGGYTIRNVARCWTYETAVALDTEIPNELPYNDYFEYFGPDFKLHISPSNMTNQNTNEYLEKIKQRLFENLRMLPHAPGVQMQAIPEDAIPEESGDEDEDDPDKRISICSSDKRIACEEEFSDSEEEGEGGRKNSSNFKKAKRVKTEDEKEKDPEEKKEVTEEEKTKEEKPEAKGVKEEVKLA

| Compound | IC50 [1] | IC50 (Histone deacetylase 1) | IC50 (Histone deacetylase 4) | EC1000 (HeLa) | Activity (Mus musculus) |
| --- | --- | --- | --- | --- | --- |
| CC(C)[C@H]1NC(=O)[C@@H](C)[C@@H](C/C=C\CCC(=O)O)NC(=O)[C@@H](Cc2ccc(O)cc2)NC(=O)[C@@H](C)NC1=O [AZUMAMIDE C] | > 50 µM | 1.17 µM | 3.16 µM | >25 µM |  |
| C[C@@H]1C(=O)N[C@H](C)C(=O)N[C@H](C)C(=O)N[C@H](Cc2ccccc2)C(=O)N[C@@H]1C/C=C\CCC(N)=O [AZUMAMIDE D] | > 50 µM | > 50 µM | > 50 µM | >25 µM |  |
| CC(C)[C@H]1NC(=O)[C@@H](C)[C@@H](C/C=C\CCC(=O)O)NC(=O)[C@@H](Cc2ccccc2)NC(=O)[C@@H](C)NC1=O [AZUMAMIDE E] | > 50 µM |  | 2.28 µM | 17 µM | Dose-dependent effect |
| CC(/C=C/C(=O)NO)=C\[C@@H](C)C(=O)c1ccc(N(C)C)cc1 [TRICHOSTATIN] |  |  |  | 0.0115 µM |  |

More lines, main results first:

| IC50 [1] | IC50 (Histone deacetylase 1) | IC50 (Histone deacetylase 4) | Compound | EC1000 (HeLa) | Activity (Mus musculus) |
| --- | --- | --- | --- | --- | --- |
| > 50 µM | > 50 µM | > 50 µM | CC(C)[C@H]1NC(=O)[C@@H](C)[C@@H](C/C=C\CCC(N)=O)NC(=O)[C@@H](Cc2ccccc2)NC(=O)[C@@H](C)NC1=O [AZUMAMIDE A] | >25 µM |  |
| > 50 µM | 1.83 µM | 3.66 µM | CC(C)[C@H]1NC(=O)[C@@H](C)[C@@H](C/C=C\CCC(N)=O)NC(=O)[C@@H](Cc2ccc(O)cc2)NC(=O)[C@@H](C)NC1=O [AZUMAMIDE B] | >25 µM |  |
